Test results from patent US20240016772A1, “Compositions And Methods Comprising D-Cysteine Or A D-Derivative Thereof” (UNIVERSITE DE GENEVE, priority 2020, published 2024).
Entries after “also recorded” stand apart in the source; their conditions may differ. Peptide text beside a SMILES is read from it. * marks the point of attachment. Cbz = O=C(OCc1ccccc1)*; CH2F = FC*

Legend:
[1] = system: mitochondrial respiration; experiment: Oxygen consumption rate of cells in poor medium with single amino acids; type: cell-based; settings: cells in poor medium containing only glucose, each amino acid tested separately; data not shown
A549 cells [2] = experiment: Proliferation of A549 cells (cell counts after 72 h / 3 days); type: cell-based, human; settings: 500 μM added to culture medium, cells counted after 3 days (72 h)
Protocol: FIG. 1. Effect of L- and D-Cysteine, each tested at 500 microM, on the proliferation of A549 cells. Cells were counted 3 days after addition of L- or D-Cysteine. (CM=culture medium)
(§1) A549 lung tumor cells (FIG. 5A) or BEAS-2B normal bronchial epithelial cells (FIG. 5B) were cultured in complete media (CM) in the absence or presence of 500 μM D-cysteine (D-Cys). Cell numbers were analyzed after 72 h and after splitting of cells (p1). Cell numbers are expressed as % of cells cultured in the absence of D-cysteine. **** P<0.0001.
(§2) We therefore decided to test whether the D-cysteine-mediated inhibition of OCR could affect cell growth in a regular normal medium complemented with fetal calf serum. Most culture media used for cell culture contain 300 μM L-cystine. […] Importantly, some cancer cell lines, including HeLa cells (FIG. 4A), the MPM cell line H2052/484 (FIG. 4B), and osteosarcoma cell line 143B (not shown), were insensitive both in 2D cultures or in colony formation assays. The decrease in numbers of cells seen after 72 h exposure to D-cysteine was due to decreased cell proliferation. […] Importantly, in contrast to the results with cancer cells, normal human bronchial epithelial BEAS-2B cells were resistant to D-cysteine exposure even at very high concentration (FIG. 5B).

A549 cells [3] = experiment: Mitochondrial respiration (OCR) of A549 cells; type: cell-based, human; settings: 500 μM, 72 h
Protocol: FIG. 9: D-cysteine impairs mitochondrial respiration of lung tumor cells. A549 cells were cultured for 72 h in complete media (CM) supplemented or not with 500 μM D-cysteine (D-Cys), and oxygen consumption rate (OCR) was quantified both before (basal respiration) and after sequential addition of oligomycin and FCCP (maximal respiration).

A549 cells [4] = experiment: Lipid peroxidation by Bodipy C11 staining; type: cell-based, human; settings: 500 μM, 72 h
Protocol: (§3) A549 cells were cultured for 72 h in complete medium (CM) with or without 500 μM D-cysteine (D-Cys) and different cellular characteristics were analyzed. FIG. 8A: Oxidized (GSSG) and total (GSH) glutathione levels. FIG. 8B: Mitochondrial ROS production by MitoSOX staining. FIG. 8C: Lipid peroxidation by Bodipy C11 staining. MFI=Mean of Fluorescence Intensity (Flow cytometry). * P<0.05.
(§4) We first tested whether D-cysteine could trigger ferroptosis. Ferroptosis is a type of death due to iron-mediated ROS production and lipid peroxidation. In most cases, it is triggered by decreased glutathione levels.

[5] = rat; 500 mg/kg daily by gavage for one month; cited from earlier work
[6] = system: BZR tumorigenic bronchial epithelial cells; experiment: Colony formation / proliferation, BZR; type: cell-based; settings: colony formation assays or spheroids
Protocol: (§5) FIGS. 4A-4D: D-cysteine affects tumor cell viability. Colony formation assays in presence or absence 0.1 mM D-cysteine (D-Cys) for 2 weeks. FIG. 4A: Lung tumor cell lines+cervix cell line (HeLa). FIG. 4B: MPM cell lines. FIG. 4C: A549. FIG. 4D: LuCa62 spheroid formation in presence or absence of 0.1 mM, 0.2 mM or 0.5 mM D-cysteine for 17 days.
as §2

A549 cells [7] = experiment: Proteome analysis (LC-MS/MS with TMT) of A549 cells exposed to D-cysteine; type: cell-based, human; settings: 500 μM, 72 h, FDR<0.01
Protocol: To understand how D-cysteine modifies protein expression, A549 cells were grown in the presence of D-cysteine for 3 days and total cellular proteins were compared to control cells grown in parallel in the presence of L-cysteine. For these experiments liquid chromatography-tandem mass spectrometry (LC-MS/MS) coupled with tandem mass tagging (TMT) was employed, a procedure which enables simultaneous protein identification and relative quantification of two different samples in the same proteomics experiment.
Proteome analysis of A549 cells cultured in the absence or presence of 500 μM D-cysteine for 72 h. […] FC=Fold change.

[8] = D-cysteine quantification in blood (serum) of mice after gavage; type: in vivo; settings: 500 mg/kg by gavage, no DAAO inhibitor, data not shown
Protocol: As described below, we have initiated experiments in which we administer D-cysteine (500 mg/kg) by gavage, and using the technique described in^37, we have measured the levels of D-cysteine in serum. […] We reasoned that the enzyme D amino oxidase (DAAO), which is known to oxidize D-amino acids and which in mice is highly expressed in the kidney, could explain the rapid clearance of D-cysteine from the blood. We therefore co-administered D-cysteine with an inhibitor of DAAO (JHU 1377). Using this protocol, we achieved higher levels of D-cysteine in the blood (Table 2) and indeed levels higher than that needed to repress tumor cell growth in vitro. Thus far we have only assessed the pharmacokinetics of D-cysteine during the first 6 h following administration. In future experiments we plan to repeat the analysis over longer time periods.
DAAO inhibitor JHU 1377 (30 mg/kg) was injected into mice, followed 2 h later by D-cysteine gavage (500 mg/kg). Blood was collected after 2, 4, and 6 h and levels of L- and D-cysteine were quantified in the serum.

[9] = system: BEAS-2B normal bronchial epithelial cells; experiment: Proliferation of BEAS-2B normal cells; type: cell-based, human; settings: 500 μM; 72 h and after splitting (p1); even at very high concentration
Protocol: as §1, §2

A549 lung cancer cells = experiment: Proliferation of A549 cells with D-cysteine and 3-MST inhibitor HMPSNE; type: cell-based, human; settings: D-cysteine 100 μM and/or HMPSNE
Protocol: (§6) A549 lung tumor cells (FIG. 10A) or MDA-MB-231 breast tumor cells (FIG. 10B) were cultured in complete media (CM) in the absence or presence of 100 μM D-cysteine (D-Cys), with (grey bars) or without (black bars) HMPSNE, a cell-membrane permeable inhibitor of 3-MST. Cell numbers were counted after 72 hours. * P<0.05, ** P<0.01, *** P<0.001, **** P<0.0001.
(§7) Furthermore, as mentioned above, it exerts toxic effects via iron chelation. Therefore, to survive D cysteine, cells need to increase its catabolism. There are two main pathways for cysteine catabolism: one is via its enzymatic breakdown to produce hydrogen sulfur and organic intermediates that will serve as carbon sources, and the second is via oxidative metabolism through cysteine dioxygenase 48. Inhibition of cysteine catabolism can be obtained with inhibitors of the key enzymes participating in this pathway. We have used a commercially available inhibitor of 3-MST, HMPSNE 49 to inhibit the enzyme in A549 lung cancer cells and in MDA-MB-231 breast cancer cells in the presence or absence of D cysteine.

MPM cell line H2052/484 = experiment: 2D culture / colony formation, H2052/484; type: cell-based; settings: 2D cultures or colony formation assays
Protocol: as §5, §2

A375 melanoma cells = experiment: Colony formation / proliferation, A375; type: cell-based; settings: colony formation assays or spheroids
Protocol: as §2

[10] = system: LuCa62 lung adenocarcinoma cells; experiment: Colony formation / spheroid formation assay, LuCa62; type: cell-based, human; settings: colony formation (0.1 mM, 2 weeks) or spheroids (0.1, 0.2 or 0.5 mM, 17 days)
Protocol: as §5, §2

A549 cells [11] = experiment: Iron concentration in A549 cells by ICP-MS; type: cell-based, human; settings: 72 h
Protocol: FIG. 3. Iron concentration in A549 cells cultured in the presence or absence of D-Cysteine for 72 h. Iron was measured using ICP-MS (Inductively coupled plasma mass spectrometry).
Moreover, D-cysteine could also trigger ferritinophagy, which is a process triggered in cells lacking iron. The most likely explanation is that D-cysteine, which accumulates in cells since it is not consumed during protein synthesis or other pathways, can react with iron through its thiol group, thus acting as an iron chelator. […] As a consequence, intracellular iron is depleted, and cells trigger ferritinophagy releasing ferric iron, thus leading to ROS production, lipid peroxidation and cell death.

HeLa cells = experiment: 2D culture / colony formation, HeLa; type: cell-based; settings: 2D cultures or colony formation assays
Protocol: as §5, §2

[12] = system: H1299 lung adenocarcinoma cells; experiment: Colony formation / proliferation, H1299; type: cell-based; settings: colony formation assays or spheroids
Protocol: as §5, §2

A549 cells [13] = experiment: Cell death of A549 cells exposed to D-cysteine (passage p1, caspase 3 Western blotting, zVAD-fmk, CRISPR screen selection); type: cell-based, human
Protocol: as §1, §2
For these experiments a pooled lentiviral CRISPR library (Addgene) targeting 19114 human genes was used to infect A549 cells, stably expressing the Cas9 nuclease. Cells were then cultured in the presence of 0.5 mM D-cysteine, a concentration sufficient to induce A549 cell death. After 2-3 weeks, the surviving clones were recovered and the sgRNAs were amplified by PCR and sequenced using next-generation sequencing (NGS) to identify the targeted genes (FIG. 6).

[14] = system: MDA-MB-231 breast cancer cells; experiment: Proliferation of MDA-MB-231 cells with D-cysteine and 3-MST inhibitor HMPSNE; type: cell-based; settings: D-cysteine 100 μM and/or HMPSNE
Protocol: as §6, §7

A549 cells [15] = experiment: Oxidized (GSSG) and total (GSH) glutathione levels in A549 cells; type: cell-based, human; settings: 500 μM, 72 h
Protocol: as §3, §4

[16] = system: cell lines derived from malignant pleural mesothelioma (MPM); experiment: Colony formation, MPM cell lines; type: cell-based; settings: colony formation assays or spheroids
Protocol: as §5, §2

[17] = system: osteosarcoma cell line 143B; experiment: 2D culture / colony formation, 143B; type: cell-based; settings: 2D cultures or colony formation assays; not shown
Protocol: as §2

A549 cells [18] = experiment: Mitochondrial ROS production by MitoSOX staining; type: cell-based, human; settings: 500 μM, 72 h
Protocol: as §3, §4

[19] = system: MDA-MB-231 triple-negative breast cancer cells; experiment: Colony formation / proliferation, MDA-MB-231; type: cell-based; settings: colony formation assays or spheroids
Protocol: as §2

N[C@@H](CS)C(=O)O [L-cysteine, reference compound]
inhibitory effect on oxygen consumption rate (OCR) [1]: responsible for the observed effect
proliferation of A549 cells (A549 cells [2]): had no effect
proliferation of A549 cells (A549 cells [2]; listed as L form of cysteine): no adverse effect

N[C@H](CS)C(=O)O [D-cysteine]
basal oxygen consumption (A549 cells [3]): strongly impaired
maximal oxygen consumption (A549 cells [3]; after oligomycin and FCCP): strongly impaired
lipid peroxidation (A549 cells [4]): induced; also recorded: induces an increase
adverse effect on the animals [5]: no adverse effect
antiproliferative effect, BZR [6]: antiproliferative effect
FC (log2) CIAO1 protein (A549 cells [7]): −1.179 log2
FC (log2) COX4I1 protein (A549 cells [7]): −0.6951 log2
FC (log2) MT-CO3 protein (A549 cells [7]): −1.538 log2
FC (log2) MT-ND4 protein (A549 cells [7]): −1.86 log2
FC (log2) NDUFA4 protein (A549 cells [7]): −0.5939 log2
FC (log2) NDUFA5 protein (A549 cells [7]): −0.8033 log2
FC (log2) NDUFA7 protein (A549 cells [7]): −1.584 log2
FC (log2) NDUFA9 protein (A549 cells [7]): −0.5906 log2
FC (log2) NDUFA10 protein (A549 cells [7]): −0.8723 log2
FC (log2) NDUFA12 protein (A549 cells [7]): −0.6836 log2
FC (log2) NDUFS1 protein (A549 cells [7]): −1.133 log2
FC (log2) NDUFS4 protein (A549 cells [7]): −0.9309 log2
FC (log2) NDUFS7 protein (A549 cells [7]): −0.8355 log2
FC (log2) NDUFS8 protein (A549 cells [7]): −0.8273 log2
FC (log2) NDUFV1 protein (A549 cells [7]): −1.064 log2
FC (log2) NDUFV2 protein (A549 cells [7]): −0.7451 log2
FC (log2) SDHB protein (A549 cells [7]): −1.214 log2
initial level of D-cysteine in the blood [8]: around 200 μM
concentration at 2 h ([8]; mouse, serum, oral, read-out: level of D-cysteine in the blood within the first 2 h): 5 µM
proliferation of normal BEAS-2B cells [9]: resistant
cell proliferation (cell numbers after 72 hours), A549 (A549 lung cancer cells): did not significantly alter the growth
sensitivity of MPM cell line H2052/484 (MPM cell line H2052/484): insensitive
antiproliferative effect, A375 (A375 melanoma cells): antiproliferative effect
antiproliferative effect, LuCa62 [10]: antiproliferative effect
cellular iron (ICP-MS) (A549 cells [11]): decrease in cellular iron
sensitivity of HeLa cells (HeLa cells): insensitive
antiproliferative effect, H1299 [12]: antiproliferative effect
cell death after first passage of cells (p1) (A549 cells [13]; A549, 500 μM D-cysteine, after 72 hours, following first passage): extensive cell death
concentration sufficient to induce A549 cell death (A549 cells [13]; A549 cells stably expressing Cas9, culture 2-3 weeks): 0.5 mM
caspase 3 by Western blotting (A549 cells [13]; D-cysteine-exposed cells, data not shown): No increase in caspase 3
cell proliferation (cell numbers after 72 hours), MDA-MB-231 [14]: did not significantly alter the growth
proliferation of A549 cells (A549 cells [2]): inhibited the proliferation; also recorded: impairs proliferation of tumor cells
glutathione levels (A549 cells [15]): did not induce a drop in glutathione
antiproliferative effect, MPM-derived cell lines [16]: antiproliferative effect
sensitivity of osteosarcoma cell line 143B [17]: insensitive
mitochondrial ROS production (A549 cells [18]): induced ROS production; also recorded: induces an increase
antiproliferative effect, MDA-MB-231 [19]: antiproliferative effect

COC(=O)C[C@H](NC(=O)[C@H](C)NC(=O)[C@@H](NC(=O)OCc1ccccc1)C(C)C)C(=O)CF [zVAD-fmk, reference compound] (Cbz-Val-Ala-Asp(OMe)-CH2F)
protection from D-cysteine-induced cell death by added pan-caspase inhibitor (A549 cells [13]; added to D-cysteine-exposed cells, data not shown): did not protect the cells

Cc1cc(=O)[nH]c(SCC(=O)c2cccc3ccccc23)n1 [HMPSNE]
cell proliferation (cell numbers after 72 hours), A549 (A549 lung cancer cells): significant impact; also recorded: potentiates the anti-proliferative effect of D-cysteine
cell proliferation (cell numbers after 72 hours), MDA-MB-231 [14]: significant impact; also recorded: potentiates the anti-proliferative effect of D-cysteine

N[C@H](CSSC[C@@H](N)C(=O)O)C(=O)O [D-cystine]
proliferation of A549 cells (A549 cells [2]): inhibited the proliferation
